From patent publication EP1025077B1, “NOVEL ARYLOXY-ALKYL-DIALKYLAMINES” (Wyeth, priority 1997, dated 1999)
Structures can show the parent of a compound that is named as a salt. Where two headings read alike, the source gives them in different places. One block for each molecule: values may come before it.

How the values were obtained:
[1] = system: Ishikawa cells; experiment: Ishikawa Cell Alkaline Phosphatase Assay; format: cell-based, human; details: for % Activation: compound alone, percent of response related to 1 nM 17_estradiol; for EC50: Homo sapiens, Ishikawa, cells treated for 48 h
[2] = system: Immature Sprague-Dawley rats (female, 18 days old); experiment: Rat Uterotrophic/Antiuterotrophic Bioassay (uterine wet weight); format: in vivo; details: for uterine wet weight, 10uG: 10 uG compound daily ip; for uterine wet weight, 100uG: 100 uG compound daily ip; for uterine wet weight, 1 uG 17_-estradiol: 1 uG daily ip
[3] = target: T1, TACE (Homo sapiens, UniProt P78536); experiment: Procedure for Measuring TACE Inhibition (fluorescent peptidyl substrate); format: biochemical; details: read-out: TACE % inhibition at 1 micromolar; 1 micromolar compound
T1 construct: purchased Immunex
T1 sequence (P78536 215-824): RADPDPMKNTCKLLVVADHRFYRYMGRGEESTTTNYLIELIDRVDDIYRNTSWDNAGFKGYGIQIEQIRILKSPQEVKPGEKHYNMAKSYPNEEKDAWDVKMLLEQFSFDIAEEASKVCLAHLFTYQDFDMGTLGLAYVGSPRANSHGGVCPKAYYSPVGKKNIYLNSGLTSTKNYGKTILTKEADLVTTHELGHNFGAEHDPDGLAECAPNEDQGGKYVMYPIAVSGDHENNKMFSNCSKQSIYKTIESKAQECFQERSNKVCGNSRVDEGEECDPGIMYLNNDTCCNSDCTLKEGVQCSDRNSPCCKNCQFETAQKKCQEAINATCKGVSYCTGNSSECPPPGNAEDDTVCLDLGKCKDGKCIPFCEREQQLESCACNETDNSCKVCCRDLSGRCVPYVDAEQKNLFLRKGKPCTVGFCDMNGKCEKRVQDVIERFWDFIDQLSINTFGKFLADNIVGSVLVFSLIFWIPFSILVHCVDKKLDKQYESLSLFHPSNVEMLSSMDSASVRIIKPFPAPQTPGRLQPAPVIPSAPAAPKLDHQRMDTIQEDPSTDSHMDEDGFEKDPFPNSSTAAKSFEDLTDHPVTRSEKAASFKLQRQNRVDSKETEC

Compound: O=C(c1ccc(OCCN2CCCCC2)cc1)c1c(-c2ccc(O)cc2)sc2cc(O)ccc12 [Raloxifene, [2-(4-hydroxyphenyl)-6-hydroxybenzo[b]thien-3-yl][4-(1-piperidinyl0ethoxy]phenyl-methanone hydrochloride]
% Activation ([1]; 48 h): 5% activity (5% with 1 nM 17_-estradiol)
uterine wet weight, 10uG ([2]; control = 42.7 mg): 47.5 mg
uterine wet weight, 100uG ([2]; control = 42.7 mg): 43.2 mg

inhibition at 1 µM [3]: 41%
Compound: COc1ccc(S(=O)(=O)C(C)(Cc2ccc(OCCN3CCCCC3)cc2)C(=O)NO)cc1 (centres unmarked) [Example 26]

EC50 ([1]; 48 h, read-out: ED50 values (95% C.I.), estrogenic activity by the alkaline phosphatase method, reference standards): 0.36 nM
Compound: C[C@]12CC[C@@H]3c4ccc(O)cc4CC[C@H]3[C@@H]1CCC2=O [estrone]

Compound: C[C@]12CC[C@@H]3c4ccc(O)cc4CC[C@H]3[C@@H]1CC[C@@H]2O [17_-estradiol]
uterine wet weight, 1 uG 17_-estradiol ([2]; control = 30.7 mg): 1 uG 17_-estradiol = 63.2 mg
uterine wet weight, 1 uG 17_-estradiol ([2]; control = 42.7 mg): 1 uG 17_-estradiol = 98.2 mg

Compound: CC/C(=C(\c1ccccc1)c1ccc(OCCN(C)C)cc1)c1ccccc1 [Tamoxifen]
uterine wet weight, 10uG ([2]; control = 42.7 mg): 69.6 mg
uterine wet weight, 100uG ([2]; control = 42.7 mg): 71.4 mg

EC50 ([1]; read-out: ED50 values (95% C.I.), estrogenic activity by the alkaline phosphatase method, reference standards): 0.13 nM
Compound: C[C@]12CC[C@@H]3c4ccc(O)cc4CC[C@H]3[C@@H]1C[C@@H](O)[C@@H]2O [estriol]

Compound: Cc1c(-c2ccc(O)cc2)n(Cc2ccc(OCCN3CCCCC3)cc2)c2ccc(O)cc12 [Example 15, 2-(4-Hydroxy-phenyl)-3-methyl-1-[4-(2-piperidin-1-yl-ethoxy)-benzyl]-1H-indol-5-ol]
% Activation ([1]; 48 h): 1% activity (1% with 1 nM 17_-estradiol)
uterine wet weight, 10uG ([2]; control = 30.7 mg): 39.9 mg
uterine wet weight, 100uG + 1uG 17 -estradiol ([2]; 100 uG compound + 1 uG 17_ estradiol daily ip (antiestrogenicity), control = 30.7 mg): 24.3 mg
uterine wet weight, 100uG ([2]; control = 30.7 mg): 27.4 mg
